# System: HCI-012 (organoid from a breast cancer xenograft)
# Experiment: CTG-3D luminescence at 96 h relative to day-0 seeding control (ratio to day 0); higher = more growth / less cytotoxicity; PDxO 3D drug screen, 96 h, CTG-3D normalised to day-0 seeding control.
# Details: 12.5 pM; days in culture: 143
row,SMILES,CTG-3D luminescence at 96 h
1,CC(C)(C(=O)NCC(F)(F)C(F)(F)F)C(=O)N[C@@H]1C(=O)Nc2ccccc2-c2ccccc21,1.62
2,CCN(c1cc(C#CCN2CCOCC2)cc(C(=O)NCc2c(C)cc(C)[nH]c2=O)c1C)[C@H]1CC[C@H](N(C)CCOC)CC1,1.91
3,NC(=O)Nc1cc(-c2cccc(F)c2)sc1C(=O)N[C@H]1CCCNC1 [AZD7762],2.11
4,O=C(/C=C/c1cccnc1)NCCCCC1CCN(C(=O)c2ccccc2)CC1 [FK866],1.77
5,CCc1c2c(nc3ccc(O)cc13)-c1cc3c(c(=O)n1C2)COC(=O)[C@]3(O)CC [SN-38],1.85
6,CCN1CCN(Cc2ccc(Nc3ncc(F)c(-c4cc(F)c5nc(C)n(C(C)C)c5c4)n3)nc2)CC1 [abemaciclib],2.22
7,C=CCn1c(=O)c2cnc(Nc3ccc(N4CCN(C)CC4)cc3)nc2n1-c1cccc(C(C)(C)O)n1 [adavosertib],1.94

# Same assay, conditions: 12.5 pM; days in culture: 162
row,SMILES,CTG-3D luminescence at 96 h
1,CC(C)(C(=O)NCC(F)(F)C(F)(F)F)C(=O)N[C@@H]1C(=O)Nc2ccccc2-c2ccccc21,2.77
2,CCN(c1cc(C#CCN2CCOCC2)cc(C(=O)NCc2c(C)cc(C)[nH]c2=O)c1C)[C@H]1CC[C@H](N(C)CCOC)CC1,2.51
3,NC(=O)Nc1cc(-c2cccc(F)c2)sc1C(=O)N[C@H]1CCCNC1 [AZD7762],2.58
4,O=C(/C=C/c1cccnc1)NCCCCC1CCN(C(=O)c2ccccc2)CC1 [FK866],2.18
5,CCc1c2c(nc3ccc(O)cc13)-c1cc3c(c(=O)n1C2)COC(=O)[C@]3(O)CC [SN-38],2.38
6,CCN1CCN(Cc2ccc(Nc3ncc(F)c(-c4cc(F)c5nc(C)n(C(C)C)c5c4)n3)nc2)CC1 [abemaciclib],2.88
7,C=CCn1c(=O)c2cnc(Nc3ccc(N4CCN(C)CC4)cc3)nc2n1-c1cccc(C(C)(C)O)n1 [adavosertib],2.21

# Same assay, conditions: 12.5 pM; days in culture: 201
row,SMILES,CTG-3D luminescence at 96 h
1,CC(C)(C(=O)NCC(F)(F)C(F)(F)F)C(=O)N[C@@H]1C(=O)Nc2ccccc2-c2ccccc21,2.67
2,CCN(c1cc(C#CCN2CCOCC2)cc(C(=O)NCc2c(C)cc(C)[nH]c2=O)c1C)[C@H]1CC[C@H](N(C)CCOC)CC1,2.85
3,NC(=O)Nc1cc(-c2cccc(F)c2)sc1C(=O)N[C@H]1CCCNC1 [AZD7762],2.51
4,O=C(/C=C/c1cccnc1)NCCCCC1CCN(C(=O)c2ccccc2)CC1 [FK866],2.67
5,CCc1c2c(nc3ccc(O)cc13)-c1cc3c(c(=O)n1C2)COC(=O)[C@]3(O)CC [SN-38],2.31
6,CCN1CCN(Cc2ccc(Nc3ncc(F)c(-c4cc(F)c5nc(C)n(C(C)C)c5c4)n3)nc2)CC1 [abemaciclib],2.81
7,C=CCn1c(=O)c2cnc(Nc3ccc(N4CCN(C)CC4)cc3)nc2n1-c1cccc(C(C)(C)O)n1 [adavosertib],2.67

# Same assay, conditions: 0.00025 µM; days in culture: 143
row,SMILES,CTG-3D luminescence at 96 h
1,CC(C)(C(=O)NCC(F)(F)C(F)(F)F)C(=O)N[C@@H]1C(=O)Nc2ccccc2-c2ccccc21,1.71
2,CCN(c1cc(C#CCN2CCOCC2)cc(C(=O)NCc2c(C)cc(C)[nH]c2=O)c1C)[C@H]1CC[C@H](N(C)CCOC)CC1,2.56
3,NC(=O)Nc1cc(-c2cccc(F)c2)sc1C(=O)N[C@H]1CCCNC1 [AZD7762],2.03
4,O=C(/C=C/c1cccnc1)NCCCCC1CCN(C(=O)c2ccccc2)CC1 [FK866],2.17
5,CCc1c2c(nc3ccc(O)cc13)-c1cc3c(c(=O)n1C2)COC(=O)[C@]3(O)CC [SN-38],2.16
6,CCN1CCN(Cc2ccc(Nc3ncc(F)c(-c4cc(F)c5nc(C)n(C(C)C)c5c4)n3)nc2)CC1 [abemaciclib],2.41
7,C=CCn1c(=O)c2cnc(Nc3ccc(N4CCN(C)CC4)cc3)nc2n1-c1cccc(C(C)(C)O)n1 [adavosertib],1.86

# Same assay, conditions: 0.00025 µM; days in culture: 162
row,SMILES,CTG-3D luminescence at 96 h
1,CC(C)(C(=O)NCC(F)(F)C(F)(F)F)C(=O)N[C@@H]1C(=O)Nc2ccccc2-c2ccccc21,1.65
2,CCN(c1cc(C#CCN2CCOCC2)cc(C(=O)NCc2c(C)cc(C)[nH]c2=O)c1C)[C@H]1CC[C@H](N(C)CCOC)CC1,2.39
3,NC(=O)Nc1cc(-c2cccc(F)c2)sc1C(=O)N[C@H]1CCCNC1 [AZD7762],2.41
4,O=C(/C=C/c1cccnc1)NCCCCC1CCN(C(=O)c2ccccc2)CC1 [FK866],2.1
5,CCc1c2c(nc3ccc(O)cc13)-c1cc3c(c(=O)n1C2)COC(=O)[C@]3(O)CC [SN-38],1.99
6,CCN1CCN(Cc2ccc(Nc3ncc(F)c(-c4cc(F)c5nc(C)n(C(C)C)c5c4)n3)nc2)CC1 [abemaciclib],2.54
7,C=CCn1c(=O)c2cnc(Nc3ccc(N4CCN(C)CC4)cc3)nc2n1-c1cccc(C(C)(C)O)n1 [adavosertib],2.27

# Same assay, conditions: 0.00025 µM; days in culture: 201
row,SMILES,CTG-3D luminescence at 96 h
1,CC(C)(C(=O)NCC(F)(F)C(F)(F)F)C(=O)N[C@@H]1C(=O)Nc2ccccc2-c2ccccc21,2.23
2,CCN(c1cc(C#CCN2CCOCC2)cc(C(=O)NCc2c(C)cc(C)[nH]c2=O)c1C)[C@H]1CC[C@H](N(C)CCOC)CC1,2.09
3,NC(=O)Nc1cc(-c2cccc(F)c2)sc1C(=O)N[C@H]1CCCNC1 [AZD7762],2.18
4,O=C(/C=C/c1cccnc1)NCCCCC1CCN(C(=O)c2ccccc2)CC1 [FK866],0.11
5,CCc1c2c(nc3ccc(O)cc13)-c1cc3c(c(=O)n1C2)COC(=O)[C@]3(O)CC [SN-38],1.99
6,CCN1CCN(Cc2ccc(Nc3ncc(F)c(-c4cc(F)c5nc(C)n(C(C)C)c5c4)n3)nc2)CC1 [abemaciclib],2.22
7,C=CCn1c(=O)c2cnc(Nc3ccc(N4CCN(C)CC4)cc3)nc2n1-c1cccc(C(C)(C)O)n1 [adavosertib],2.07

# Same assay, conditions: 0.005 µM; days in culture: 143
row,SMILES,CTG-3D luminescence at 96 h
1,CC(C)(C(=O)NCC(F)(F)C(F)(F)F)C(=O)N[C@@H]1C(=O)Nc2ccccc2-c2ccccc21,1.71
2,CCN(c1cc(C#CCN2CCOCC2)cc(C(=O)NCc2c(C)cc(C)[nH]c2=O)c1C)[C@H]1CC[C@H](N(C)CCOC)CC1,2.37
3,NC(=O)Nc1cc(-c2cccc(F)c2)sc1C(=O)N[C@H]1CCCNC1 [AZD7762],2.04
4,O=C(/C=C/c1cccnc1)NCCCCC1CCN(C(=O)c2ccccc2)CC1 [FK866],0.328
5,CCc1c2c(nc3ccc(O)cc13)-c1cc3c(c(=O)n1C2)COC(=O)[C@]3(O)CC [SN-38],0.415
6,CCN1CCN(Cc2ccc(Nc3ncc(F)c(-c4cc(F)c5nc(C)n(C(C)C)c5c4)n3)nc2)CC1 [abemaciclib],2.02
7,C=CCn1c(=O)c2cnc(Nc3ccc(N4CCN(C)CC4)cc3)nc2n1-c1cccc(C(C)(C)O)n1 [adavosertib],2.1

# Same assay, conditions: 0.005 µM; days in culture: 162
row,SMILES,CTG-3D luminescence at 96 h
1,CC(C)(C(=O)NCC(F)(F)C(F)(F)F)C(=O)N[C@@H]1C(=O)Nc2ccccc2-c2ccccc21,1.36
2,CCN(c1cc(C#CCN2CCOCC2)cc(C(=O)NCc2c(C)cc(C)[nH]c2=O)c1C)[C@H]1CC[C@H](N(C)CCOC)CC1,1.97
3,NC(=O)Nc1cc(-c2cccc(F)c2)sc1C(=O)N[C@H]1CCCNC1 [AZD7762],1.89
4,O=C(/C=C/c1cccnc1)NCCCCC1CCN(C(=O)c2ccccc2)CC1 [FK866],0.129
5,CCc1c2c(nc3ccc(O)cc13)-c1cc3c(c(=O)n1C2)COC(=O)[C@]3(O)CC [SN-38],0.295
6,CCN1CCN(Cc2ccc(Nc3ncc(F)c(-c4cc(F)c5nc(C)n(C(C)C)c5c4)n3)nc2)CC1 [abemaciclib],2.02
7,C=CCn1c(=O)c2cnc(Nc3ccc(N4CCN(C)CC4)cc3)nc2n1-c1cccc(C(C)(C)O)n1 [adavosertib],2.02

# Same assay, conditions: 0.005 µM; days in culture: 201
row,SMILES,CTG-3D luminescence at 96 h
1,CC(C)(C(=O)NCC(F)(F)C(F)(F)F)C(=O)N[C@@H]1C(=O)Nc2ccccc2-c2ccccc21,1.91
2,CCN(c1cc(C#CCN2CCOCC2)cc(C(=O)NCc2c(C)cc(C)[nH]c2=O)c1C)[C@H]1CC[C@H](N(C)CCOC)CC1,1.92
3,NC(=O)Nc1cc(-c2cccc(F)c2)sc1C(=O)N[C@H]1CCCNC1 [AZD7762],1.69
4,O=C(/C=C/c1cccnc1)NCCCCC1CCN(C(=O)c2ccccc2)CC1 [FK866],0.33
5,CCc1c2c(nc3ccc(O)cc13)-c1cc3c(c(=O)n1C2)COC(=O)[C@]3(O)CC [SN-38],0.824
6,CCN1CCN(Cc2ccc(Nc3ncc(F)c(-c4cc(F)c5nc(C)n(C(C)C)c5c4)n3)nc2)CC1 [abemaciclib],1.75
7,C=CCn1c(=O)c2cnc(Nc3ccc(N4CCN(C)CC4)cc3)nc2n1-c1cccc(C(C)(C)O)n1 [adavosertib],1.6
